Biological target: T1, NEDD8-activating enzyme (NAE), Uba3 subunit (Homo sapiens, UniProt Q8TBC4)
T1 construct: His-APP-BP1, His-Uba3 (kit enzymes); with APPBP1 (NAE1); Ubc12 and NEDD8 present in the assay
Experiment: in vitro NEDD8 conjugation assay with purified E1 (APPBP1/Uba3), Ubc12 and NEDD8; non-reducing western blot of Ubc12-NEDD8
Format: biochemical

T1 sequence (Q8TBC4 2-463): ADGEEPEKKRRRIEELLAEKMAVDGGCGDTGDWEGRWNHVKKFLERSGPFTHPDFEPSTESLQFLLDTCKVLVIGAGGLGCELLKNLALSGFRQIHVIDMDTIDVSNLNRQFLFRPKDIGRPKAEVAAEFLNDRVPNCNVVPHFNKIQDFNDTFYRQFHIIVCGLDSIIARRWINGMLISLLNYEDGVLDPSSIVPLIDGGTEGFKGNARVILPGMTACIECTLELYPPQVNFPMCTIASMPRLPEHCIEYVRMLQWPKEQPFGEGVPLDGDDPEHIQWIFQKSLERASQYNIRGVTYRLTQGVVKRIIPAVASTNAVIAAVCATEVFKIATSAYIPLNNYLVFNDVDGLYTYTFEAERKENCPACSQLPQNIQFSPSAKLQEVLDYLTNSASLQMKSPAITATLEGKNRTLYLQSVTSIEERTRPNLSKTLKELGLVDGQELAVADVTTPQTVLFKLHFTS
T1 sequence (Q13564 2-534 partner): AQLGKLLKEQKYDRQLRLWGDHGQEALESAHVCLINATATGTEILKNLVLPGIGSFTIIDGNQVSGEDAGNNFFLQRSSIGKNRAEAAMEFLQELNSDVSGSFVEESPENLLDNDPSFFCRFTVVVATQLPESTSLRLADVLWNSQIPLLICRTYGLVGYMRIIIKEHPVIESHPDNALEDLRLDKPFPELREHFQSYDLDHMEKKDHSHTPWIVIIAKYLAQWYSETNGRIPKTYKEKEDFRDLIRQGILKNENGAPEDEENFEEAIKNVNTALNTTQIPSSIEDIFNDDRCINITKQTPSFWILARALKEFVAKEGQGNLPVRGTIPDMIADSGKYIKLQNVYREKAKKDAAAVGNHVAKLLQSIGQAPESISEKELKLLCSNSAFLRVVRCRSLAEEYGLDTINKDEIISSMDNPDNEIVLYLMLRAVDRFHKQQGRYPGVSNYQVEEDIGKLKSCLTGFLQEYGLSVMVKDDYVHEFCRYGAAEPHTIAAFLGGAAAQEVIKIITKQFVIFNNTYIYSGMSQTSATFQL
T1 sequence (P61081 whole entry partner): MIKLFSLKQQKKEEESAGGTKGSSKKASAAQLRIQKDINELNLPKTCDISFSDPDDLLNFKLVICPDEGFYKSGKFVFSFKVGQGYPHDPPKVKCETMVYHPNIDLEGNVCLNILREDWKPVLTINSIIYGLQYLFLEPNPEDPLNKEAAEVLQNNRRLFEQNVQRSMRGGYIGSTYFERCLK
T1 sequence (Q15843 1-76 partner): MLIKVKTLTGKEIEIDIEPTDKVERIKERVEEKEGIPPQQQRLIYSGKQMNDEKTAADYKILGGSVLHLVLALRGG

- IC50: ~5 µM
SMILES: COc1ccc(/C=C/C(=O)c2c(O)cc(OC)cc2OC)cc1 [FKA, flavokawain A]
